In patent US9458095B2, “Oligo-benzamide compounds and their use in treating cancers” (The Board of Regents of the University of Texas System, priority 2011, dated 2016):
Entries after “also recorded” stand apart in the source; their conditions may differ.

What was measured:
Format in all cases: cell-based
ARv7 [1] = molecular target: T1, ARv7 (Homo sapiens, UniProt P10275); experiment: ARE-luciferase reporter in PC-3 cells expressing ARv7; set-up: expressed in transfected cells; host or cells: PC-3 cells (A4); M12 cells (A9); conditions: 100 nM peptidomimetic, 48 h
T1 sequence (P10275 1-644 isoform P10275-3): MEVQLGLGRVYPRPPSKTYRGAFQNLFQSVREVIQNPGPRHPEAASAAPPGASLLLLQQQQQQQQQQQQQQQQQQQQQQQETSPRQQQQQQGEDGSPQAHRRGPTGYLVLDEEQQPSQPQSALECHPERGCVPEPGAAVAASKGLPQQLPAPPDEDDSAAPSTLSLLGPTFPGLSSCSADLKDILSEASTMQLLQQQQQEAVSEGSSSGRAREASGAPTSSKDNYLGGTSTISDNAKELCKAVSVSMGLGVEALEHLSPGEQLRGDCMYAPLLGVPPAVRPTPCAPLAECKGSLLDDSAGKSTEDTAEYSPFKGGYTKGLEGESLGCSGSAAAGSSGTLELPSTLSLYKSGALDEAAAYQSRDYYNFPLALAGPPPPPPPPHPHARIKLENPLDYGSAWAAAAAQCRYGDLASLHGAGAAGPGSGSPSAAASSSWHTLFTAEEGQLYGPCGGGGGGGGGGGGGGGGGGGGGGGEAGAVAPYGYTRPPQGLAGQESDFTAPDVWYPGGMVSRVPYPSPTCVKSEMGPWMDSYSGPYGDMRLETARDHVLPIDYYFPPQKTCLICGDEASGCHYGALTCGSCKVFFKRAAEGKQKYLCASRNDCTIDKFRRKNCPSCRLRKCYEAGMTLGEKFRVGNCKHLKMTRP
Protocol: (§1) FIGS. 2A-D. Oligobenzamide control of PC3 cell proliferation. (FIG. 2A) Structure of AR deletion mutants with numbered exons (FIG. 2B) Effect of D2 and T6 on basal (AI) and AD transcription. PC-3 cells were transiently transfected with ARE-luciferase along with plasmids expressing ARwt (FIG. 2B), ARv7 (FIG. 2C) or ARΔ1 (FIG. 2D). Cells were maintained for 48 h either without (EtOH) or with (1 nM DHT) and in the presence of 100 nM of peptidomimetic or volume equivalent of vehicle (DMSO) control. Luciferase assay results are shown. Data is normalized to the basal level of expression with AR wt in PC3 cells.
FIGS. 3A-B. Effect of T6 on basal transcription driven by splice variants. PC-3 cells were transiently transfected with ARE-luciferase along with plasmids expressing ARv7 (FIG. 3A) or AR567 (FIG. 3B). Cells were maintained for 48 h either without (EtOH) or with (1 nM DHT) and in the presence of 100 nM of peptidomimetic or volume equivalent of vehicle (DMSO) control. Luciferase assay results are shown. Data is normalized to the basal level of expression with AR wt in PC3 cells.
Since the WxxLF motif is also present in the truncated forms of the androgen receptor, the inventors then evaluated the ability of the peptidomimetics to block ARv7-driven transcription from a minimal ARE luciferase reporter. […]

ARv7 [2] = molecular target: T1, ARv7; experiment: Rat probasin-luciferase reporter in M12 cells with ARv7; set-up: expressed in transfected cells; host or cells: M12 cells (A9); conditions: 100 nM peptidomimetic, 48 h
Protocol: FIG. 5. Effect of T6 on basal level of ARE expression in M12 cells. M12 cells were transiently transfected with the rat probasin-luciferase reporter and either ARwt or ARv7. Cells were maintained for 48 h without (EtOH) and in the presence of 100 nM of peptidomimetic or volume equivalent of vehicle (DMSO) control or 10 μM of MDV3100. Luciferase assay results are shown.

ARΔ1 = molecular target: T2, ARΔ1 (Homo sapiens, UniProt P10275); experiment: ARE-luciferase reporter in PC-3 cells expressing ARΔ1; conditions: 100 nM peptidomimetic, 48 h
T2 construct: expressed in transfected cells; host or cells: PC-3 cells
T2 sequence (P10275 540-920 limits assumed): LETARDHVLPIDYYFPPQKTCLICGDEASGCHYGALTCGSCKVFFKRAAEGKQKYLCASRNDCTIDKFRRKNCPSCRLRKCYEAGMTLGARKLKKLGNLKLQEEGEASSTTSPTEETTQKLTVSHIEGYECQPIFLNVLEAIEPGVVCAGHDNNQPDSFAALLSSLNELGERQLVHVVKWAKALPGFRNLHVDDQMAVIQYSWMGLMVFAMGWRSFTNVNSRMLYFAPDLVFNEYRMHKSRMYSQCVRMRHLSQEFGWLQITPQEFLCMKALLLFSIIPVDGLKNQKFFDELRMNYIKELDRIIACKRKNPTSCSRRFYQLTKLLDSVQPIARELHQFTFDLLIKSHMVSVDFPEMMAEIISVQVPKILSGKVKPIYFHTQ
Protocol: as §1
Since the WxxLF motif is also present in the truncated forms of the androgen receptor, the inventors then evaluated the ability of the peptidomimetics to block ARv7-driven transcription from a minimal ARE luciferase reporter. […] These findings were confirmed with a synthetic AR with point mutations in the WxxLF motif (data not shown).

[3] = tested on: ARE activity in CWR22v1 cells (ARwt and ARv7); experiment: ARE-luciferase reporter in CWR22v1 cells
Protocol: FIG. 4. Effect of T6 on basal level of ARE expression in CWR22v1 cells. CWR22v1 cells were transiently transfected with ARE-luciferase. Cells were maintained for 48 h without (EtOH) and in the presence of 100 nM of peptidomimetic or volume equivalent of vehicle (DMSO) control or 10 μM of casodex or MDV3100.

WxxLF motif on AR = experiment: Gal4-3WxxLF and AR-Gal4 (hARGAL4/PSAenhGAL4-luc) luciferase reporter assays; conditions: 100 nM peptidomimetic, 48 h, absence of androgens
Protocol: FIGS. 1A-D. Oligobenzamide control of C4-2 cell proliferation. (FIG. 1A) Chemical structure of T6. (FIG. 1B) C4-2 cells were transiently transfected with Gal4-3WxxLF promoter or (FIG. 1C) with synthetic hARGAL4 and the PSAenhGAL4-luc reporter. Cells were maintained for 48 h in the absence of androgens and with either 100 nM of peptidomimetic or volume equivalent of vehicle (DMSO) control and luciferase activity measured. (FIG. 1D) Peptidomimetics knocked down ligand independent proliferation in C4-2 cells
Ligand independent activation involves the WxxLF motif, whose tertiary structure has not been crystallographically resolved. Indeed, binding partners of AR through this WxxLF motif have not been determined. […] Based on this model, the inventors designed three peptidomimetics T6, T21 and T26 to mimic the ^435WxxLF^439 motif on AR and to target PPIs through this domain (FIG. 1A). The screening strategy involved the use of synthetic Gal4-3WxxLF (Gal4 reporter driven by 3 copies of the WxxLF motif) (FIG. 1B) and AR-Gal4 constructs (wt AR with its DNA binding domain replaced by Gal4 DNA binding domain) (from Dr. Dehm, U. Minnesota) (FIG. 1C) […]. T21, T26, or T6 (but not the control T6R) knocked down the basal ligand independent transcription from this WxxLF driven promoters. Further, these peptidomimetics abrogated ligand independent proliferation of C4-2 cells (FIG. 1D).

ARv7-mediated transcription (ARv7 [1]): able to block; also recorded: decreases
expression of rat probasin reporter in M12 cells driven by ARv7 (ARv7 [2]): able to independently knock down
ARΔ1-mediated transcription (ARΔ1): not able to block
basal ligand independent transcription from WxxLF driven promoters (WxxLF motif on AR): knocked down
Structure (SMILES): CC(C)COc1cc(C(N)=O)ccc1NC(=O)c1ccc(NC(=O)c2ccc([N+](=O)[O-])c(OCCc3ccc4ccccc4c3)c2)c(OCC(C)C)c1 [T6]
basal transcription from minimal ARE luciferase in CWR22v1 cells (driven by ARv7) ([3]; 100 nM peptidomimetic, 48 h, without androgen (EtOH)): able to suppress; also recorded: abrogated
DHT-induced transcription from minimal ARE luciferase in CWR22v1 cells ([3]; DHT): able to suppress
